Holding throughout (format): physicochemical
Data set [1] in a line: stressing at 40° C./75% relative humidity (stability study, XRPD). The following applies: for physical stability to stressing at 40° C./75% relative humidity (RH): 7 days.
The nature of data set [2]: storage under ambient conditions (15° C. to 30° C.), form conversion. The following applies: temperature of from 15° C. to 30° C. The procedure: For Free Base Form E, Free Base Form F, Free Base Form G, Free Base Form H, and Free Base Form J: two different instruments were used for characterizing the materials by XRPD. Samples were analysed dry with a Malvern Panalytical Xpert Pro diffractometer, except for Free Base Form F. Free Base Form F was analysed using a Malvern Panalytical Empyrean diffractometer.
Napsylate Salt Form C was analysed by XRPD.

Data set [3] in a line: heat stress on a TGA, recovered material analyzed by XRPD. The conditions noted are these: held ~1 minute; for Post-XRPD (150° C.): heated on TGA to 150° C.; for Post-XRPD (100° C.): heated on TGA to 100° C. The procedure:
Samples of each form were heat stressed on a TGA. Samples were heated to the specified temperature and held at that temperature for approximately 1 minute. The material was then recovered from the TGA and analyzed by XRPD.

Structures are written as SMILES. Entries after “also recorded” stand apart in the source; their conditions may differ. Counter-ions that a name gives are not always drawn.

Consider `CN1CCN([C@@H]2CCCN(c3cnc(C(N)=O)c(Nc4ccc(C5CCN(CC6CCN(c7ccc(C(=O)N[C@H]8CCC(=O)NC8=O)nc7)CC6)CC5)cc4)n3)C2)C1=O` [Free Base Form G], for which the “physical stability to stressing at 40° C./75% relative humidity (RH)” value in data set [1] is reported as “not physically stable”. As to `CN1CCN([C@@H]2CCCN(c3cnc(C(N)=O)c(Nc4ccc(C5CCN(CC6CCN(c7ccc(C(=O)N[C@H]8CCC(=O)NC8=O)nc7)CC6)CC5)cc4)n3)C2)C1=O` [Free Base Form F], the “physical stability to ambient conditions” value in data set [2] is “converted on drying at ambient conditions (including a temperature of from 15 °C to 30° C.) to Free Base Form J; also recorded: not physically stable”. Also, in data set [1], the “physical stability to stressing at 40° C./75% relative humidity (RH)” value is “not physically stable”. On to `CN1CCN([C@@H]2CCCN(c3cnc(C(N)=O)c(Nc4ccc(C5CCN(CC6CCN(c7ccc(C(=O)N[C@H]8CCC(=O)NC8=O)nc7)CC6)CC5)cc4)n3)C2)C1=O` [Free Base Form H], for which the “physical stability to stressing at 40° C./75% relative humidity (RH)” value in data set [1] is reported as “physically stable”.

`CN1CCN([C@@H]2CCCN(c3cnc(C(N)=O)c(Nc4ccc(C5CCN(CC6CCN(c7ccc(C(=O)N[C@H]8CCC(=O)NC8=O)nc7)CC6)CC5)cc4)n3)C2)C1=O` [Free Base Form J]: the “physical stability to stressing at 40° C./75% relative humidity (RH)” value in data set [1] was “physically stable”. For `CN1CCN([C@@H]2CCCN(c3cnc(C(N)=O)c(Nc4ccc(C5CCN(CC6CCN(c7ccc(C(=O)N[C@H]8CCC(=O)NC8=O)nc7)CC6)CC5)cc4)n3)C2)C1=O` [Free Base Form B], the “Post-XRPD (150° C.)” value in data set [3] (listed as B) is recorded as “Free Base Form A”. `CN1CCN([C@@H]2CCCN(c3cnc(C(N)=O)c(Nc4ccc(C5CCN(CC6CCN(c7ccc(C(=O)N[C@H]8CCC(=O)NC8=O)nc7)CC6)CC5)cc4)n3)C2)C1=O` [Free Base Form A]: the “Post-XRPD (100° C.)” value in data set [3] (listed as A) was “Free Base Form A”.

Take `CN1CCN([C@@H]2CCCN(c3cnc(C(N)=O)c(Nc4ccc(C5CCN(CC6CCN(c7ccc(C(=O)N[C@H]8CCC(=O)NC8=O)nc7)CC6)CC5)cc4)n3)C2)C1=O` [Free Base Form C]: the “Post-XRPD (150° C.)” value in data set [3] (listed as C) is recorded as “Free Base Form C”.

For the compound `CN1CCN([C@@H]2CCCN(c3cnc(C(N)=O)c(Nc4ccc(C5CCN(CC6CCN(c7ccc(C(=O)N[C@H]8CCC(=O)NC8=O)nc7)CC6)CC5)cc4)n3)C2)C1=O` [Napsylate Salt Form B], the “physical stability to ambient conditions” value in data set [2] was “conversion to Napsylate Salt Form C”. Take `CN1CCN([C@@H]2CCCN(c3cnc(C(N)=O)c(Nc4ccc(C5CCN(CC6CCN(c7ccc(C(=O)N[C@H]8CCC(=O)NC8=O)nc7)CC6)CC5)cc4)n3)C2)C1=O` [Free Base Form D]: the “Post-XRPD (100° C.)” value in data set [3] (listed as D) is on record as “Free Base Form D”. `CN1CCN([C@@H]2CCCN(c3cnc(C(N)=O)c(Nc4ccc(C5CCN(CC6CCN(c7ccc(C(=O)N[C@H]8CCC(=O)NC8=O)nc7)CC6)CC5)cc4)n3)C2)C1=O` [Free Base Form E]: the “physical stability to stressing at 40° C./75% relative humidity (RH)” value in data set [1] was “physically stable”. Regarding `CN1CCN([C@@H]2CCCN(c3cnc(C(N)=O)c(Nc4ccc(C5CCN(CC6CCN(c7ccc(C(=O)N[C@H]8CCC(=O)NC8=O)nc7)CC6)CC5)cc4)n3)C2)C1=O` [Succinate Salt Form B], the “form after stressing at 40° C./75% relative humidity (RH)” value in data set [1] (1 week (FIG. 72)) is “converted back to Succinate Salt Form A”.

The values are drawn from patent US20250136579A1, “SALTS AND FREE BASES OF BIFUNCTIONAL COMPOUND AND POLYMORPH FORMS THEREOF” (NURIX THERAPEUTICS, INC., priority 2023, published 2025).
